According to patent US9750805B2, “Calcium flux agonists and methods therefor” (Nant Holdings IP, LLC, priority 2012, dated 2017):

How the values were obtained:
[1] = tested on: TLR (TLR2, TLR4, TLR5, TLR9) and NOD (NOD1, NOD2) family members; experiment: IL-8 production with TLR and NOD ligands plus suboptimal calcium flux agonist (FIGS. 3A-3E); type: cell-based, human; conditions: suboptimal doses: 20 nM thapsigargin, 316 nM A23187, 1 μM ionomycin, 10 μM cyclopiazonic acid, 31.6 μM DBHQ
Method: To investigate if that observation was also true for other pattern recognition receptors, and especially for TLR and NOD receptors and other ligands, the inventors tested numerous TLR and NOD receptors and various ligands.
The doses used in this experiment were 20 nM for thapsigargin, 316 nM for A23187, 1 μM for ionomycin, 10 μM for cyclopiazonic acid, and 31.6 μM for DBHQ.
Thus, a clear pattern of adjuvant activity of calcium flux agonists on the immune response, and especially on IL-8 production and NF-κB signaling is evident where the immune response is associated with a TLR- or NOD-mediated event.

[2] = tested on: κB-LUC THP-1 reporter cells; experiment: κB-LUC THP-1 reporter response to S. aureus conditioned/spent media (FIGS. 5B-5E); type: cell-based, human; conditions: 1:100 conditioned media, 18 hours; 20 nM thapsigargin, 316 nM A23187, 1 μM ionomycin vs DMSO vehicle
Excerpt: Briefly, a culture of logarithmically dividing S. aureus was washed three times with RPMI 1640 (Cellgro). Concurrently, THP-1 κB-LUC THP-1's (THP-1 cells containing the stable integration of a NF-κB luciferase reporter gene) cultured in RPMI 1640 (Cellgro) supplemented with 10% FBS (Thermo HyClone, Waltham Mass.) and 1% penicillin-streptomycin-fungizone (Thermo HyClone) were washed three times with RPMI 1640 (Cellgro) and transferred to the bottom compartment of a 24-well 0.4 μm cutoff transwell plate (Corning) at a concentration of 1.2 million/mL. Dilutions of the washed S. aureus culture were then added to the top chamber of the transwell system at the indicated initial multiplicities of infection (MOI). The cells were incubated for 18 hours at 37° C. at which time aliquots of 60,000 cells were transferred to wells in a 384-well white bottom plate (Thermo). To evaluate luciferase gene expression, Bright-Glo Luciferase Assay Reagent (Promega) was added to each well and the plates were analyzed for luciferase activity using the Perkin Elmer TopCount NXT system (Perkin Elmer).
To determine whether the recognition of S. aureus-produced products could be further augmented through modulation of calcium flux, κB-LUC THP-1 reporter cells were incubated in the presence of a 1:100 dilution (V/V) of sterile filtered S. aureus conditioned (i.e. spent) or unused sterile media and treated with a suboptimal dose (20 nM) of thapsigargin or dimethyl sulfoxide (DMSO) vehicle control as described above. Briefly, conditioned media was produced by culturing S. aureus in RPMI with 10% fetal bovine serum overnight in a shaking incubator at 37° C. following which the bacteria were pelleted by centrifugation and the supernatants filter-sterilized using a 0.2 μm filter (VWR Radnor PA). The κB-LUC THP-1 cells were incubated in the presence of the conditioned/spent media for 18 hours prior to luciferase assay as described above.

S. aureus = experiment: Antibiotic sensitivity of S. aureus (OD600 / plating, FIGS. 9A-9C, 10); type: cell-based; conditions: log phase culture, OD600 over time, control kanamycin, 9B
Method: To determine the antibiotic sensitivity of S. aureus, cultures were grown overnight in tryptic soy broth (Cellgro). The resulting cultures were used to inoculate new cultures to ensure log phase growth prior to the start of the experiment. Once the bacteria had reached log phase the bacteria was diluted to the appropriate OD600˜0.05 and transferred to a 24-well plate. Compounds of interest were added and plates were incubated in a shaking incubator at 37° C. Aliquots were removed at various time points and their respective OD600 was measured using a BioTek Synergy2 microplate reader (BioTek, Winooski, Vt.). For wells whose turbidity was affected by the addition of the compounds of interest, aliquots were removed and plated on tryptic soy agar (Cellgro) and incubated overnight in a 37° C. incubated and counted the following day. Thus, it should be appreciated that the calcium flux agonists are effective in antimicrobial treatments via an indirect effect, most likely due to the enhanced production of IL-8 and increased NF-κB-driven transcription.

THP-1 cells = experiment: Human IL-8 activity, dose response of calcium flux agonists without added TLR or NOD ligand; type: cell-based; conditions: 24 hours, increasing concentrations, no added TLR or NOD ligand, FIGS. 1A-1C
Excerpt: The inventors performed several studies to identify the effect of calcium flux agonists on various components of an immune response, and particularly on the effect of calcium flux agonists on IL-8 production and activation of NF-κB signaling. […] The dose response is observed over relatively large windows for ionophores (e.g., A23187 and ionomycin) and over at least two orders of magnitude for SERCA inhibitors (e.g., thapsigargin).
More specifically, the dose response of ionophores on NF-κB and IL-8 is shown in FIGS. 1A-1B using a monocyte-derived cell line to treatment and A23187 and ionomycin in the absence of externally added TLR or NOD ligands. […] FIG. 1C depicts the dose response to thapsigargin on NF-κB and IL-8.
Human IL-8 activity: A titration of thapsigargin (A.G. Scientific, San Diego Calif.), ionomycin (Sigma-Aldrich, St. Louis Mo.), and the calcium ionophore A23187 (Sigma-Aldrich) was added to a 96-well plate (Thermo Matrix, Waltham Mass.) seeded with 150,000 THP-1 cells (ATCC TIB-202) grown in RPMI 1640 (Cellgro, Herndon VA) supplemented with 10% FBS (Thermo HyClone, Waltham Mass.) and 1% penicillin-streptomycin-fungizone (Thermo HyClone). 24 hours after addition, 25 uL of supernatant was removed and assayed for human IL-8 using the Meso Scale Discovery Human IL-8 Tissue Culture Kit (MSD, Rockville, Md.) per manufacturer's protocol. The results were analyzed using the Meso Scale Discovery SECTOR Imager 2400 and normalized to a titration of human IL-8 supplied by the MSD Kit.

SMILES | effect on IL-8 production with TLR and NOD ligands [1] | NF-κB reporter response to S. aureus conditioned/spent media [2] | direct antibiotic effect against S. aureus (S. aureus) | IL-8 production (THP-1 cells)
C[C@H](CCC(=O)O)C[C@H](C)C[C@H](C)C(=O)/C=C(\O)[C@H](C)C[C@H](C)C/C=C/[C@@H](C)[C@@H](O)[C@@H](C)[C@@H](O)C[C@@H]1CC[C@@](C)([C@H]2CC[C@@](C)([C@@H](C)O)O2)O1 [ionomycin] | synergistic effect | significantly enhanced | some direct antibiotic effect | significant increases
C/C=C(/C)C(=O)O[C@H]1C(C)=C2[C@H]([C@@H]1OC(=O)CCCCCCC)[C@@](C)(OC(C)=O)C[C@H](OC(=O)CCC)[C@@]1(O)[C@H]2OC(=O)[C@@]1(C)O [thapsigargin] | synergistic effect | significantly enhanced | lack of direct antibiotic effect | significant increases
CNc1ccc2oc(C[C@H]3O[C@@]4(CC[C@H]3C)O[C@H]([C@H](C)C(=O)c3ccc[nH]3)[C@H](C)C[C@H]4C)nc2c1C(=O)O [A23187, calcimycin] | synergistic effect | significantly enhanced | some direct antibiotic effect | significant increases
